# Measured values from patent US20240132480A1, “INHIBITORS OF MYCOBACTERIUM TUBERCULOSIS LIPOAMIDE DEHYDROGENASE” (Cornell University, priority 2021, published 2024).
# Like-named read-outs stand apart in the source and are kept apart here.
# Key:
# Mtb Lpd = Mtb Lpd (Mycobacterium tuberculosis (strain ATCC 25618 / H37Rv), UniProt P9WHH9); type: biochemical
# [1] = microsomes
# [2] = 30 min preincubation, read-out: LPD IC50 (μM) w/ 30 min preincubation
Structure (SMILES),IC50 (Mtb Lpd; read-out: LPD IC50) [µM],Human Liver Microsome Stability [1] [µL/min/mg],IC50 (Mtb Lpd; [2]) [µM]
Cc1cc(S(=O)(=O)N(C)CC(=O)Nc2ccc3ccncc3c2)c2n[nH]cc2c1 [Example 63],0.0321,63,
"Cc1cc(S(=O)(=O)N2CCC[C@@H](C(=O)Nc3ccc4c(c3)OCCN4C3COC3)C2)c2[nH]ncc2c1 [Example 170, N-1-((5-methyl-1H-indazol-7-yl)sulfonyl)-N-(4-(oxetan-3-yl)-3,4-dihydro-2H-benzo[b][1,4]oxazin-7-yl)piperidine-3-carboxamide]",0.051,34,
"Cc1cc(S(=O)(=O)N2CC[C@H]2C(=O)Nc2ccc3c(c2)OCCN3C2COC2)c2[nH]c(C#N)cc2c1 [Example 206, (S)-1-((2-cyano-5-methyl-1H-indol-7-yl)sulfonyl)-N-(4-(oxetan-3-yl)-3,4-dihydro-2H-benzo[b][1,4]oxazin-7-yl)azetidine-2-carboxamide]",0.081,111,0.022
COCc1n[nH]c2c(S(=O)(=O)N(C)CC(=O)Nc3ccc(OC)c(C)c3)cc(C)cc12 [Example 28],3640,>768,
"CN(CC(=O)Nc1ccc2c(c1)OCCN2C1CCOCC1)S(=O)(=O)c1cc(C(F)F)cc2cn[nH]c12 [Example 171, 2-((5-(difluoromethyl)-N-methyl-1H-indazole)-7-sulfonamido)-N-(4-(tetrahydro-2H-pyran-4-yl)-3,4-dihydro-2H-benzo[b][1,4]oxazin-7-yl)acetamide]",0.078,102,
Cc1cc(S(=O)(=O)N2CC[C@H]2C(=O)Nc2ccc3ncccc3c2)c2[nH]ncc2c1 [Example 87],0.035,111,
Cc1cc(S(=O)(=O)N(C)CC(=O)Nc2ccc3nccn3c2)c2n[nH]cc2c1 [Example 48],0.0421,36,
Cc1cc(S(=O)(=O)N(C)CC(=O)Nc2ccc3c(c2)OC(C)(C)CN3C)c2n[nH]cc2c1 [Example 158],0.022,46,
"COc1cc(NC(=O)CN(C)S(=O)(=O)c2cc(C)cc3cc(C#N)[nH]c23)ccn1 [Example 214, 2-((2-cyano-N,5-dimethyl-1H-indole)-7-sulfonamido)-N-(2-methoxypyridin-4-yl)acetamide]",,91,0.021
COc1ccc(NC(=O)CN(C)S(=O)(=O)c2cc(C(F)F)cc3cn[nH]c23)cc1C [Example 8],0.0263,534,
"Cc1cc(S(=O)(=O)N(C)CC(=O)Nc2ccn3cccc3c2)c2[nH]ncc2c1 [Example 46, 2-((N,5-dimethyl-1H-indazole)-7-sulfonamido)-N-(imidazo[1,5-a]pyridin-7-yl)acetamide]",0.0067,4,
Cc1cc(S(=O)(=O)N2CCC[C@H]2C(=O)Nc2ccn(C)c(=O)c2)c2[nH]ncc2c1 [Example 7],0.0513,18,
"CCN(CC(=O)Nc1ccc2c(c1)OCCN2C(C)(C)CO)S(=O)(=O)c1cc(C)cc2cn[nH]c12 [Example 145, 2-((N-ethyl-5-methyl-1H-indazole)-7-sulfonamido)-N-(4-(1-hydroxy-2-methylpropan-2-yl)-3,4-dihydro-2H-benzo[b][1,4]oxazin-7-yl)acetamide]",0.039,92,
"Cc1cc(S(=O)(=O)N(C)CC(=O)Nc2cc(=O)n3c(n2)CCCC3)c2[nH]c(C#N)cc2c1 [Example 224, 2-((2-cyano-N,5-dimethyl-1H-indole)-7-sulfonamido)-N-(4-oxo-6,7,8,9-tetrahydro-4H-pyrido[1,2-a]pyrimidin-2-yl)acetamide]",,61,0.022
Cc1cc(S(=O)(=O)N(C)CC(=O)Nc2ccc3c(c2)OCCO3)c2[nH]ncc2c1 [Example 29],0.0109,76,
Cc1cc(S(=O)(=O)N(C)CC(=O)Nc2ccc3cnccc3c2)c2n[nH]cc2c1 [Example 57],0.0328,59,
"COc1ccc(NC(=O)CN(C)S(=O)(=O)c2cc(C)cc3cc(C#N)[nH]c23)cn1 [Example 216, 2-((2-cyano-N,5-dimethyl-1H-indole)-7-sulfonamido)-N-(6-methoxypyridin-3-yl)acetamide]",,49,0.02
Cc1cc(S(=O)(=O)N(C)CC(=O)Nc2ccc3c(c2)N(C2CCOCC2)CCO3)c2[nH]ncc2c1 [Example 163],0.031,94,
Cc1cc(S(=O)(=O)N2CC[C@H]2C(=O)Nc2ccc3cccnc3c2)c2[nH]ncc2c1 [Example 106],0.019,236,
"Cc1cc(S(=O)(=O)N(C)CC(=O)NCc2cn(-c3ccccc3)nn2)c2[nH]ncc2c1 [Example 125, 2-((N,5-dimethyl-1H-indazole)-7-sulfonamido)-N-((1-phenyl-1H-1,2,3-triazol-4-yl)methyl)acetamide]",0.048,520,
"Cn1ccc(NC(=O)[C@@H]2CCN2S(=O)(=O)c2cc(C(F)F)cc3cn[nH]c23)cc1=O [Example 152, (S)-1-((5-(difluoromethyl)-1H-indazol-7-yl)sulfonyl)-N-(1-methyl-2-oxo-1,2-dihydropyridin-4-yl)azetidine-2-carboxamide]",0.058,-7,
